Experimental data reported in patent US4481141A, “Nondiffusible yellow metallized azo dye-releasing compounds” (Eastman Kodak Company, priority 1983, dated 1984).
“Also recorded” adds a separate entry of the source.

Key:
Type in all cases: physicochemical
[1] = Light stability of mordanted dyes (HID fade, Table I); details: unmetallized dye; nickel layer/poly(4-vinylpyridine) receiver; 10 days HID, 50,000 lux, 38° C., pH 7
Description: (§1) A receiving element was prepared comprising a poly(ethylene terephthalate) film support having thereon a nickel sulfate hexahydrate (0.58 g/m^2)/gelatin (1.08 g/m^2) metal complexing layer, and a poly(4-vinylpyridine)/gelatin mordant layer (each at 2.15 g/m^2), which forms metal complexes with the unmetallized dyes. […]
The above receiving elements at pH 7 were then subjected to 10 days irradiation by a high intensity daylight (HID), 6000 W Xenon arc lamp, the sample receiving 50,000 lux through a Wratten 2B (ultraviolet) filter at approximately 38° C. and low humidity. The percent fade represents the loss in density at λmax after irradiation.

[2] = Dye solution spectra of Ni-dye complexes (Table I); details: 3:1 dioxane:water, pH 7, excess nickel ion
Description: (§2) The receiver was removed from the dye solution, washed in distilled water, placed in a pH 7.0 buffer solution and dried. Transmission spectra obtained on each sample of the mordanted dyes were normalized by computer to a density of 1.0. The characteristic wavelength of the dye, λ1/2 in nm, is the mean of the wavelength limits of the absorption envelope at half the maximum density. The HBW ("half band width") in nm is the range or distance between those limits. The dye solution spectrum in 3:1 dioxane:water at pH 7 in the presence of excess nickel ion is also given.

[3] = Transmission spectra of mordanted dyes on receiving element (Table I); details: unmetallized dye; nickel sulfate layer/poly(4-vinylpyridine) mordant receiver; pH 7.0
Description: as §1, §2

[4] = Stability of dye:nickel complex under gel pad transfer conditions; details: after gel pad diffusion test
Description: A donor element, containing a thick pad of deionized acid-processed gelatin (26 g/m^2) hardened with 2 percent bis(vinylsulfonylmethyl)ether, was imbibed with a solution of 0.1M in potassium hydroxide and 1.3×10^-3 M in dye. The pad was soaked to full penetration, surface wiped, and then laminated in direct contact to the above receiving element which had been presoaked for 5 minutes at 0.1M KOH. The t-1/2 of dye transfer was obtained as in the solution test. The diffusion times by the "gel pad test" are substantially longer than by the "solution test".
When the unmetallized dye ligand of Compound J of the '643 patent and the 1:1 complex thereof were subjected to the gel pad diffusion test as described in Example 1, the values obtained were 66 sec. and 146 sec., respectively.

[5] = Dye diffusion, gel pad test
Description: (§3) The released dyes in Table I were also subjected to the conditions of two different dye diffusion tests. One, the "solution test" involved dissolving the dye in a viscous composition and transferring it through a receiving element which contains an opaque and reflecting layer in addition to the mordant layer. The other, a "gel pad test" involved imbibing the dye from solution into a thick gelatin layer, and then transferring it by direct lamination to the same receiving element which had been preswollen by soaking 5 minutes in a solution of 0.1 potassium hydroxide. The receiver for these tests had the following composition (coverages are parenthetically given in g/m^2):
(§4) A transparent poly(ethylene terephthalate) film support coated with
(§5) (1) a mordant layer of poly(styrene-co-N-vinylbenzyl-N-benzyl-N,N-dimethylammonium chloride-co-divinylbenzene) (2.28) and gelatin (2.28);
(§6) (2) an opaque and reflecting layer of carbon black (1.88) in gelatin (1.23) and titanium dioxide (16.1) in gelatin (2.63); and
(§7) (3) an overcoat layer of gelatin (4.3).
A donor element, containing a thick pad of deionized acid-processed gelatin (26 g/m^2) hardened with 2 percent bis(vinylsulfonylmethyl)ether, was imbibed with a solution of 0.1M in potassium hydroxide and 1.3×10^-3 M in dye. […]

[6] = Comparison with prior art: absorption in dioxane/water with and without nickel ions
Description: In U.S. Pat. No. 4,148,643, Compound J in column 32 is the nickel complex of the following dye compound: [drawing 20] The nickel-dye complex is listed as having a λmax of 462 nm and a half-band width of 76 nm when adsorbed to a cationic polymeric mordant on a film strip. A 1:1 dioxane/water mixture at a pH of 7.0 of this nickel-dye complex was prepared. It absorbed at 444 nm in the presence of excess nickel ions and 402 nm in the absence of nickel ions.
In Table I, Compound C has the following structure: [drawing 21] The compound has a quinoline nitrogen chelating group instead of a hydroxyl chelating group as in Compound J of the '643 patent. A 1:1 dioxane/water mixture at a pH of 7.0 of the above Compound C was prepared. It absorbed at 452 nm in the presence of excess nickel ions and at 387 nm in the absence of nickel ions.

[7] = Dye diffusion, solution test; details: 0.0025M dye, pH 13.4
Description: as §3, §4, §5, §6, §7
Approximately 0.075 mmol of the released dye was dissolved in 10 ml of 0.125N potassium hydroxide. After the dye was completely dissolved, 20 ml of a viscous composition was added; and the resulting solution, stirred for at least 20 minutes, was 0.0025M in dye at a pH of 13.4. The viscous composition was prepared from 46.2 g potassium hydroxide and 54 g carboxymethylcellulose dissolved in 1200 ml water. […] Measurement of the rate of dye diffusion was commenced at the point at which half of the laminate had passed through the rollers. The appearance of dye on the mordant was measured at λmax as diffuse reflection density vs. time. The reflection density was converted to transmission density by computer with the aid of a mathematical relation derived from a previous calibration. A plot of transmission density, which is proportional to concentration vs. time, was derived; and the value of t-1/2 of dye transfer, the time in seconds required to obtain one-half of the maximum transmission density, calculated.

Row | Structure (SMILES) | % Fade (loss in density at λmax after irradiation) [1] [%] | Spectra of Ni-Dye Complexes, Dye Solution, HBW (half band width) [2] [nm] | Spectra of Ni-Dye Complexes, Dye Solution, λ1/2 [2] [nm] | Spectra of Ni-Dye Complexes, Mordant, HBW (half band width) [3] [nm] | Spectra of Ni-Dye Complexes, Mordant, λ1/2 [3] [nm] | spectrum of the dye on the receiver after transfer [4] | gel pad diffusion test value ([5]; gel pad diffusion test as in Example 1 (comparison with prior art)) [s] | nature/stability of dye:nickel complex from spectrum ([6]; 0.5 mol Ni^++, listed as Dye C) | absorption wavelength in the presence of excess nickel ions ([6]; 1:1 dioxane/water, pH 7.0, excess nickel ions) [nm] | absorption wavelength in the absence of nickel ions ([6]; 1:1 dioxane/water, pH 7.0, no nickel ions) [nm] | spectrum at reduced nickel ion concentration ([6]; nickel ion at one-half the molar concentration of the dye) | Dye Diffusion t1/2, Soln. [7] [s] | Dye Diffusion t1/2, Gel Pad ([5]; gel pad test, 0.1M KOH, 1.3×10^-3 M dye) [s]
1 | N#CC(N=Nc1cccc2cccnc12)=C(O)c1ccccc1 [F] | 2.0 | 70 | 446 | 75 | 458 |  |  |  |  |  |  |  | 
2 | CC(O)=C(C#N)N=Nc1cc(S(N)(=O)=O)ccc1O [reference compound] |  |  |  |  |  | showed the presence of the unmetallized dye only | 66 |  |  |  |  |  | 
3 | O=c1c(N=Nc2cccc3cccnc23)c(O)n(-c2ccccc2)n1-c1ccccc1 [L] | 1.0 | 72 | 435 | 77 | 439 |  |  |  |  |  |  |  | 
4 | CC(O)=C(C#N)N=Nc1ccc(S(=O)(=O)Nc2cccc(S(N)(=O)=O)c2)c2cccnc12 [Compound C] | 1.0 | 70 | 448 | 74 | 457 |  |  | stable 2:1 complex of dye to metal; also recorded: much more stable 2:1 dye:nickel complex than compound J of the '643 patent | 452 | 387 | no change in the spectrum | 37 | 
5 | CC(O)=C(C#N)N=Nc1cccc2cccnc12 [A] |  | 68 | 431 |  |  |  |  |  |  |  |  |  | 
6 | N#CC(N=Nc1ccc(S(N)(=O)=O)c2cccnc12)=C(O)c1ccccc1 [G] | 1.0 | 70 | 460 | 75 | 470 |  |  |  |  |  |  | 27 | 
7 | O=c1oc2ccccc2c(O)c1N=Nc1cccc2cccnc12 [O] | 0.0 | 98 | 429 | 85 | 452 |  |  |  |  |  |  |  | 
8 | NS(=O)(=O)c1ccc(N=Nc2c(O)n(-c3ccccc3)n(-c3ccccc3)c2=O)c2ncccc12 [M] | 1.0 | 72 | 450 | 77 | 459 |  |  |  |  |  |  |  | 
9 | CC(O)=C(C#N)N=Nc1ccc(S(=O)(=O)Nc2cccc(O)c2)c2cccnc12 [D] | 8.0 | 70 | 451 | 73 | 459 |  |  |  |  |  |  | 39 | 
10 | CC(C)(C)C(O)=C(C#N)N=Nc1ccc(S(=O)(=O)Nc2cccc(S(N)(=O)=O)c2)c2cccnc12 [H] | 3.6 | 70 | 450 | 79 | 455 |  |  |  |  |  |  | 40 | 
11 | Cc1nn(-c2ccccc2)c(O)c1N=Nc1cccc2cccnc12 [N] | 3.0 | 102 | 444 | 116 | 447 |  |  |  |  |  |  |  | 
12 | CC(O)=C(C#N)N=Nc1ccc(S(=O)(=O)Nc2cccc(C(=O)O)c2)c2cccnc12 [I] | 7.2 | 68 | 451 | 77 | 455 |  |  |  |  |  |  | 34 | 127
13 | CC(O)=C(C#N)N=Nc1ccc(S(N)(=O)=O)c2cccnc12 [B] | 1.5 | 67 | 445 | 70 | 456 |  |  |  |  |  |  | 27 | 
14 | CC(C)(C)C(O)=C(C#N)N=Nc1ccc(S(N)(=O)=O)c2cccnc12 [E] | 2.0 | 72 | 445 | 69 | 456 |  |  |  |  |  |  | 29 | 
